# What was measured:
# [1] = system: promastigotes of L. amazonensis; conditions: read-out: IC50 against promastigotes of L. amazonensis; cited from earlier work
# [2] = system: promastigotes of L. infantum; conditions: cited from earlier work
# [3] = system: L. donovani promastigotes; experiment: In vitro L. donovani promastigotes growth inhibition (resazurin-based assay); type: cell-based; conditions: Leishmania donovani, 72 h; for inhibition at 25 µM / inhibition at 50 µM: growth of L. donovani promastigotes, incubation 3 days, relative to control; for IC50: incubation for 3 days, from dose-response curves, read-out: IC50 against L. donovani promastigotes
# Method: Using an in vitro promastigotes-based model, the activity of the synthesized target compounds 2a–i was assessed against the promastigote stage of L. donovani. A double-concentration assay was performed for each compound at 50 and 25 µM concentrations adopting a resazurin-based assay system. Erufosine was used as a positive reference standard drug.
# Among the evaluated compounds, seven derivatives maintained a high inhibitory activity at 25 and 50 μM concentrations which was similar to erufosine. Therefore, they were advanced to assessment of potency to evaluate their quality as antileishmanial hit compounds. […] Erufosine was used as positive controls for comparison.
# (§1) 2.1. In vitro L. donovani promastigotes-based evaluation model
# (§2) 2.1.1. Cell culture of parasite
# (§3) L. donovani MHOM/SD/62/1S-CL2D parasites (Department of PIV, Institut Pasteur, Paris,
# (§4) France) were cultured as promastigotes at 28 °C in M199 medium (Sigma-Aldrich, St. Louis, MO,
# (§5) USA) with 40 mM HEPES, 0.1 mM adenine, 0.0001% biotin, and 4.62 mM NaHCO3
# (§6) supplemented with 10% foetal bovine serum (FBS, Gibco, Carlsbad, CA, USA), […]
# (§7) penicillin (Gibco), and […] streptomycin (Gibco). Parasites were sub-cultured every 3 or
# (§8) 4 days and maintained for 10 passages.
# (§9) 2.1.2 Assay of parasite growth inhibition
# (§10) The values of growth inhibition of L. donovani promastigotes were determined based on the
# (§11) metabolism of resazurin to resorufin by aerobic respiration of metabolically active cells using 384-
# (§12) well plates that were seeded with L. donovani promastigotes (5x10^4 cells per well) and incubated
# (§13) with tested compounds for 3 days followed by addition of Resazurin sodium salt (200 µM; R7017;
# (§14) Sigma-Aldrich, St. Louis, MO, USA) and further incubation for 5 h then the cells were fixed (4%
# paraformaldehyde). The plates were analysed using a Victor3TM plate reader (PerkinElmer, Inc.,
# Waltham, MA, USA) at 590 nm (emission) and 530 nm (excitation). Miltefosine and erufosine
# were used as the reference standards. All measured and calculated values are the averages of
# triplicates. The dose-response curves were generated by GraphPad Prism 6 software using a
# sigmoidal dose-response equation with a variable hill slope option. […]
# [4] = In vitro safety evaluation: cytotoxicity on THP-1 cells; type: cell-based; conditions: human, PMA-treated THP-1 monocytic cells, THP-1 human monocytic cell line
# Method: As for the considerable toxicities of current antileishmanial therapies, a promising drug candidate should be selective eliciting no potential cytotoxicity towards human cells. […] The newly introduced hit compound needs to be safe and non-toxic to human cells. A comparison with the standard drug erufosine was performed. […] In light of these findings, it might be inferred that both cinnamoyl ketoamide hybrids 2g and 2h could be selective antileishmanial hit compounds for future development.
# as §1, §2, §3, §4, §5, §6, §7, §8, §9, §10, §11, §12, §13, §14
# paraformaldehyde). The plates were analysed using a Victor3TM plate reader (PerkinElmer, Inc., […]
# were used as the reference standards. All measured and calculated values are the averages of […]
# The images were acquired based on reading using an Operetta® automated microscope
# (PerkinElmer, Inc., Waltham, MA 02451, USA). They were further analysed using ColumbusTM
# (PerkinElmer, Inc. Waltham, MA, USA) software to quantify parasite numbers, and host cell
# numbers. In brief, large-sized nucleus of host cells was first detected using DAPI signal and the […]
SMILES,IC50 [1],IC50 ([2]; read-out: IC50 against promastigotes of L. infantum),inhibition at 25 µM [3],inhibition at 50 µM [3],IC50 [3],CC50 at 72 h [4],IC50 against promastigotes of L. infantum [2]
O=C(/C=C/c1ccc(O)c(O)c1)O[C@H](Cc1ccc(O)c(O)c1)C(=O)O [Rosmarinic acid],61 µM,57.3 µM,–,–,–,–,–
CCCC(=Cc1ccc(O)c(O)c1)C(=O)NC(Cc1ccccc1)C(=O)C(=O)NCc1ccccc1 (centres unmarked) [Compound 2d],–,–,107 ± 0.4%,102 ± 0.1%,45.2 ± 0.9 µM,–,–
CCCC(=Cc1ccc(O)c(O)c1)C(=O)NC(Cc1ccccc1)C(=O)C(=O)NCCc1ccc(OC)cc1 (centres unmarked) [Compound 2e],–,–,104 ± 0.2%,104 ± 0.1%,37.6 ± 2.1 µM,–,–
CCCCC(=Cc1ccc(O)c(O)c1)C(=O)NC(Cc1ccccc1)C(=O)C(=O)NCc1ccccc1 (centres unmarked) [Compound 2f],–,–,104 ± 0.4%,100 ± 0.3%,26.9 ± 1.4 µM,–,–
"CCCCCCCC/C=C\CCCCCCCCCCCCOP(=O)([O-])OCC[N+](C)(C)C [Erufosine, reference compound]",–,–,100 ± 1%,107.6 ± 0.3%,9.8 ± 0.7 µM,19.4 µM,–
CCC(=Cc1ccc(O)c(O)c1)C(=O)NC(Cc1ccccc1)C(=O)C(=O)NCc1ccccc1 (centres unmarked) [Compound 2c],–,–,104 ± 0.3%,101 ± 0.2%,87.3 ± 1.2 µM,–,–
"O=C(/C=C/c1ccc(O)c(O)c1)OCCc1ccccc1 [CAPE, caffeic acid phenethyl ester]",–,–,–,–,–,–,51.0 µg/mL
COc1ccc(CCNC(=O)C(=O)C(Cc2ccccc2)NC(=O)C=Cc2ccc(O)c(O)c2)cc1 (centres unmarked) [Compound 2b],–,–,44 ± 1.2%,72.83 ± 0.4%,–,–,–
CCCCC(=Cc1ccc(OC)c(OC)c1)C(=O)NC(Cc1ccccc1)C(=O)C(=O)NCCc1ccc(OC)cc1 (centres unmarked) [Compound 2i],–,–,79.8 ± 1.8%,94.2 ± 1.2%,–,–,–
"O=C(/C=C/c1ccc(O)c(O)c1)O[C@@H]1C[C@](O)(C(=O)O)C[C@@H](O)[C@H]1O [chlorogenic, chlorogenic acid]",> 500 µM,–,–,–,–,–,–
O=C(C=Cc1ccc(O)c(O)c1)NC(Cc1ccccc1)C(=O)C(=O)NCc1ccccc1 (centres unmarked) [Compound 2a],–,–,97.8 ± 1%,103 ± 0.4%,> 100 µM,–,–
CCCCC(=Cc1ccc(O)c(O)c1)C(=O)NC(Cc1ccccc1)C(=O)C(=O)NCCc1ccc(OC)cc1 (centres unmarked) [Compound 2g],–,–,107 ± 0.1%,103 ± 0.1%,9.5 ± 0.6 µM,> 100 µM,–
CCCCC(=Cc1ccc(O)c(OC)c1)C(=O)NC(Cc1ccccc1)C(=O)C(=O)NCCc1ccc(OC)cc1 (centres unmarked) [Compound 2h],–,–,103 ± 0.2%,100 ± 0.3%,8.8 ± 0.4 µM,> 100 µM,–
